Results on two compounds are retold here after PubChem BioAssay (NCI).

Some test systems named below: ACHN renal; TK-10 renal; OVCAR-5 ovarian; SK-OV-3 ovarian; K-562 leukemia; CCRF-CEM leukemia; M14 melanoma; UACC-257 melanoma; UACC-62 melanoma; OVCAR-4 ovarian.
Experiment in all cases: inhibition of tumour cell growth, NCI panel, 48 h

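The compound was tested at five concentrations on cells cultured in 96-well plates, with a 48-hour exposure period. GI50 is the concentration that inhibits growth by half. TGI: total growth inhibition.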 Bounds are passed on as bounds.

Consider `CC(=O)Oc1ccc(C23c4ccccc4C2(OC(C)=O)c2cc(OC(C)=O)ccc23)cc1` (stereo not given), for which the GI50 in the test with ACHN renal was 1.94 µM; in the test with TK-10 renal it was 6.23 µM; with OVCAR-5 ovarian it was 5.54 µM; in the test with SK-OV-3 ovarian, 20.5 µM; in the test with K-562 leukemia it was 4.04 µM; in the test with CCRF-CEM leukemia, 3.05 µM. Moreover, the GI50 is 14 µM with M14 melanoma, 22.9 µM with UACC-257 melanoma, 3.69 µM with UACC-62 melanoma and 30 µM in the test with OVCAR-4 ovarian. Further, the TGI in the test with ACHN renal is 5.4 µM; in the test on TK-10 renal, more than 100 µM; in the test on OVCAR-5 ovarian, 18 µM; in the test on SK-OV-3 ovarian, 47.6 µM; with K-562 leukemia it was more than 100 µM; in the test with CCRF-CEM leukemia, 12.4 µM. Further, the TGI in the test on M14 melanoma is 32.1 µM; in the test on UACC-257 melanoma it was 60.8 µM; in the test on UACC-62 melanoma it was 13.7 µM; with OVCAR-4 ovarian, more than 100 µM.

Consider `Nc1nonc1-c1nc2cnccc2n1C1CC1`, for which the GI50 was 6.25 µM with ACHN renal; 0.636 µM in the test on TK-10 renal; 5.14 µM in the test with OVCAR-5 ovarian; 4.36 µM with SK-OV-3 ovarian; more than 21 µM in the test on K-562 leukemia; 7.99 µM in the test on CCRF-CEM leukemia. The GI50 in the test with M14 melanoma is 14.1 µM; with UACC-257 melanoma it was 18.1 µM; with UACC-62 melanoma, 7.59 µM; in the test on OVCAR-4 ovarian, 7.4 µM. Moreover, the TGI with ACHN renal is more than 25 µM; in the test on TK-10 renal it was more than 20.3 µM; with OVCAR-5 ovarian, more than 25 µM; in the test on SK-OV-3 ovarian, 18.4 µM; in the test on K-562 leukemia, more than 25 µM; in the test with CCRF-CEM leukemia, more than 25 µM. The TGI in the test with M14 melanoma, in the test with UACC-257 melanoma, with UACC-62 melanoma and in the test with OVCAR-4 ovarian was more than 25 µM each time.
